Data on nine compounds can be found in PubChem BioAssay (NCI).

Among the test systems are 786-0 renal; HS 578T breast; K-562 leukemia; LOX IMVI melanoma; M14 melanoma; MDA-MB-435; NCI-H460 lung; PC-3 prostate; U251 CNS; UACC-62 melanoma.
What all share (assay): inhibition of tumour cell growth, NCI panel, 48 h

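Exposure lasted 48 hours, with cells grown in 96-well plates and compounds tested at five concentrations. GI50 = concentration required for 50% inhibition of growth. TGI: total growth inhibition.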 Where only a bound is given, the exact number is not on record here.

With `Cn1cc(C2=C(c3cccc(OC[C@@H](O)CO)c3)C(=O)NC2=O)c2ccccc21`, the GI50 was 14 µM with 786-0 renal; 1390 nM in the experiment on HS 578T breast; 17.3 µM with K-562 leukemia; 14800 nM with LOX IMVI melanoma; above 25000 nM in the experiment with M14 melanoma; above 25000 nM in the experiment on MDA-MB-435. Besides, the GI50 in the experiment on NCI-H460 lung is above 25000 nM; with PC-3 prostate it was above 25000 nM; with U251 CNS, above 15500 nM; in the experiment on UACC-62 melanoma, above 25000 nM. Moreover, the TGI in the experiment with 786-0 renal, with HS 578T breast, with K-562 leukemia, with LOX IMVI melanoma, with M14 melanoma and in the experiment with MDA-MB-435 was above 25 µM throughout. In addition, the TGI with NCI-H460 lung, with PC-3 prostate, in the experiment with U251 CNS and with UACC-62 melanoma was above 25 µM in each case.
With `O=C(O)c1cccc(C(=O)O)c1S(=O)Cc1ccccc1` (stereo not given), the TGI in the experiment with 786-0 renal, in the experiment on HS 578T breast, in the experiment with K-562 leukemia, with LOX IMVI melanoma, in the experiment on M14 melanoma and with MDA-MB-435 was above 100 µM each time. Further, the TGI in the experiment on NCI-H460 lung, in the experiment with PC-3 prostate, with U251 CNS and with UACC-62 melanoma was above 100 µM each time.
On to `O=C1c2sccc2-c2cccc3cccc1c23` (tested in a mixture with another compound), for which the TGI with 786-0 renal is above 100 µM; in the experiment on HS 578T breast, 6.72 µM; in the experiment with K-562 leukemia, 25.8 µM; in the experiment with LOX IMVI melanoma it was 18.2 µM; in the experiment with M14 melanoma, above 100 µM; with MDA-MB-435, above 100 µM. For the same compound, the TGI was 82.6 µM in the experiment on NCI-H460 lung, 31.6 µM with PC-3 prostate, 23 µM in the experiment with U251 CNS and 22.6 µM in the experiment on UACC-62 melanoma.
For the compound `COc1ccc(/C=C(\C#N)n2nnc3c(F)cccc32)cc1`, the GI50 in the experiment with 786-0 renal was 0.607 µM; in the experiment on HS 578T breast, 309 nM; in the experiment on K-562 leukemia, 0.0645 µM; with LOX IMVI melanoma, 493 nM; in the experiment on M14 melanoma, 245 nM; in the experiment on MDA-MB-435, 52 nM. For the same compound, the GI50 was 413 nM in the experiment on NCI-H460 lung, 381 nM in the experiment on PC-3 prostate, 410 nM in the experiment with U251 CNS and 303 nM with UACC-62 melanoma. The TGI was above 51.2 µM in the experiment with 786-0 renal; 1.98 µM with HS 578T breast; above 100 µM in the experiment on K-562 leukemia; 16.6 µM in the experiment with LOX IMVI melanoma; 1.57 µM in the experiment on M14 melanoma; 0.371 µM with MDA-MB-435. Moreover, the TGI is above 100 µM in the experiment with NCI-H460 lung, above 100 µM in the experiment on PC-3 prostate, 17.7 µM in the experiment on U251 CNS and 15 µM in the experiment on UACC-62 melanoma.
In the case of `C[C@]12CC[C@@H]3c4cc(OC(F)F)c(OS(N)(=O)=O)cc4CC[C@H]3[C@@H]1CC[C@@H]2O`, the GI50 in the experiment with 786-0 renal is 0.621 µM; with HS 578T breast, 366 nM; with K-562 leukemia, 0.364 µM; with LOX IMVI melanoma it was 428 nM; with M14 melanoma, 343 nM; in the experiment with MDA-MB-435, 209 nM. Also, the GI50 was 401 nM with NCI-H460 lung, 537 nM in the experiment on PC-3 prostate, 539 nM in the experiment on U251 CNS and 299 nM in the experiment on UACC-62 melanoma. The TGI was 29.1 µM in the experiment with 786-0 renal; 30.2 µM in the experiment with HS 578T breast; above 100 µM in the experiment on K-562 leukemia; 15.3 µM in the experiment on LOX IMVI melanoma; 14.6 µM in the experiment with M14 melanoma; 0.603 µM with MDA-MB-435. Further, the TGI came out at 11.3 µM in the experiment with NCI-H460 lung, 47.8 µM with PC-3 prostate, 16.4 µM in the experiment with U251 CNS and 16.7 µM in the experiment with UACC-62 melanoma.
Regarding `OCCNC1c2cc(Cl)ccc2-c2c(Cl)cc(Cl)cc21` (stereo not given), the TGI in the experiment with 786-0 renal, in the experiment on HS 578T breast, with K-562 leukemia, with LOX IMVI melanoma, with M14 melanoma and with MDA-MB-435 was above 100 µM throughout. The TGI in the experiment on NCI-H460 lung was 63.4 µM; with PC-3 prostate, 77.3 µM; in the experiment on U251 CNS it was above 100 µM; with UACC-62 melanoma it was above 100 µM.
`CC1=C(CC(=O)c2cccc([N+](=O)[O-])c2)C(=O)c2ccccc2C1=O`: the GI50 was 14.8 µM in the experiment on 786-0 renal; 4740 nM in the experiment with HS 578T breast; 7.25 µM in the experiment with K-562 leukemia; 2220 nM in the experiment with LOX IMVI melanoma; 6660 nM in the experiment on M14 melanoma; 2130 nM in the experiment on MDA-MB-435. In addition, the GI50 was 18200 nM in the experiment on NCI-H460 lung, 7140 nM in the experiment on PC-3 prostate, 6740 nM with U251 CNS and 2630 nM in the experiment on UACC-62 melanoma. In addition, the TGI came out at 35.4 µM in the experiment on 786-0 renal; 48.6 µM in the experiment on HS 578T breast; 38.9 µM in the experiment on K-562 leukemia; 8.31 µM in the experiment with LOX IMVI melanoma; 22.3 µM in the experiment on M14 melanoma; 4.04 µM in the experiment on MDA-MB-435. Besides, the TGI with NCI-H460 lung was above 100 µM; with PC-3 prostate it was 63.2 µM; in the experiment on U251 CNS it was 21.6 µM; in the experiment on UACC-62 melanoma, 8.4 µM.
Consider `CC(=O)NCc1cccc(C#Cc2cncnc2Nc2ccc(OCc3cccc(F)c3)c(Cl)c2)c1`, for which the GI50 in the experiment with 786-0 renal was 10.7 µM; in the experiment with HS 578T breast, above 22400 nM; with K-562 leukemia it was 10.1 µM; in the experiment on LOX IMVI melanoma, 9440 nM; in the experiment on M14 melanoma, 14100 nM; in the experiment with MDA-MB-435, 8410 nM. Also, the GI50 in the experiment on NCI-H460 lung was 10600 nM; with PC-3 prostate, 8370 nM; in the experiment with U251 CNS, 11000 nM; with UACC-62 melanoma it was 9870 nM. Further, the TGI with 786-0 renal, with HS 578T breast, in the experiment on K-562 leukemia, with LOX IMVI melanoma, in the experiment on M14 melanoma and in the experiment with MDA-MB-435 was above 25 µM each time. In addition, the TGI in the experiment with NCI-H460 lung, with PC-3 prostate, with U251 CNS and in the experiment on UACC-62 melanoma was above 25 µM each time.
On to `N#CCCN1C/C(=C/c2ccc(Cl)cc2)C(=O)/C(=C/c2ccc(Cl)cc2)C1`, for which the GI50 was 0.868 µM in the experiment on 786-0 renal; 2900 nM in the experiment on HS 578T breast; 0.378 µM in the experiment on K-562 leukemia; 303 nM in the experiment with LOX IMVI melanoma; 1800 nM with M14 melanoma; 1370 nM in the experiment on MDA-MB-435. Further, the GI50 with NCI-H460 lung is 707 nM; with PC-3 prostate it was 489 nM; in the experiment with U251 CNS, 417 nM; in the experiment with UACC-62 melanoma it was 1800 nM. Besides, the TGI with 786-0 renal is 2.77 µM; in the experiment on HS 578T breast it was 12.8 µM; in the experiment on K-562 leukemia it was above 100 µM; with LOX IMVI melanoma, 1.13 µM; in the experiment on M14 melanoma, 3.99 µM; in the experiment with MDA-MB-435, 2.99 µM. Also, the TGI was found to be 2.52 µM in the experiment on NCI-H460 lung, 3.61 µM with PC-3 prostate, 1.48 µM in the experiment on U251 CNS and 4.1 µM with UACC-62 melanoma.
